According to patent US20240158418A1 (C4 Therapeutics, Inc., priority 2021, published 2024):

Assays:
EGFR-L861Q = target: T1, EGFR-L861Q (Homo sapiens, UniProt P00533, L861Q); test: KINOMEscan scanMAX, EGFR-L861Q; type: binding; conditions: 100 nM
T1 construct: purchased Eurofins DiscoverX KINOMEscan scanMAX; host or cells: E. coli BL21-derived (T7 phage) or HEK-293
Experimental: Kinome-wide binding selectivity of CFT8919 was assessed via the KINOMEscan scanMAX assay at Eurofins DiscoverX (Freemont, CA, USA). Compound was tested at 100 nM against a diverse panel of 468 kinases. The size of circles was mapped onto the kinase phylogenetic tree utilizing DiscoverX TREEspot using <50% of % control as a cutoff.
For most assays, kinase-tagged T7 phage strains were grown in parallel in 24-well blocks in an E. coli host derived from the BL21 strain. E. coli were grown to log-phase and infected with T7 phage from a frozen stock (multiplicity of infection=0.4) and incubated with shaking at 32° C. until lysis (90-150 minutes). The lysates were centrifuged (6,000×g) and filtered (0.2 μm) to remove cell debris. The remaining kinases were produced in HEK-293 cells and subsequently tagged with DNA for qPCR detection. Streptavidin-coated magnetic beads were treated with biotinylated small molecule ligands for 30 minutes at room temperature to generate affinity resins for kinase assays. The liganded beads were blocked with excess biotin and washed with blocking buffer (SeaBlock (Pierce), 1% BSA, 0.05% Tween 20, 1 mM DTT) to remove unbound ligand and to reduce non-specific phage binding. […] Test compounds were prepared as 40× stocks in 100% DMSO and directly diluted into the assay. […] The kinase concentration in the eluates was measured by qPCR.

[1] = target: T2, Sal-like protein 4 (SALL4) (Homo sapiens, UniProt Q9UJQ4); test: SALL4 degradation, HiBiT-tagged SALL4 in KELLY cells; type: cell-based; conditions: 6 hours, up to 10 μM
T2 construct: Endogenous expression of SALL4 in KELLY cells was determined by addition of C-terminal HiBiT tag; host or cells: KELLY (CRISPR-Cas9 HiBiT knock-in)
Experimental: Specific studies were carried out to assess the ability of Compound 1 to degrade Sal-like protein 4 (SALL4), a protein implicated in the teratogenicity induced by the IMiD®s class of IKZF1/IKZF3 degraders including lenalidomide (Matyskiela et al., Crystal structure of the SALL4-pomalidomide-cereblon-DDB1 complex, Nature Structural and Molecular Biology, (2020) 27, 319-322). Endogenous expression of SALL4 in KELLY cells was determined by addition of C-terminal HiBiT tag to the KELLY cell line (DSMZ ACC355) using CRISPR-Cas9. Briefly, test compound was added to 384-well plates at a top concentration of 1 μM with 11 points, half log titration in duplicates. KELLY cells expressing HiBiT-tagged SALL4 were seeded into the 384-well plates in RPMI medium containing 10% FBS and 2 mM pyruvate at a cell density of 6000 cells per well. Cells treated in the absence of the test compound were the negative control and wells containing media only were the positive control. Following compound treatment, cells were incubated at 37° C. with 5% CO2 for 6 hr. HiBiT signal was determined using Nano-Glo™ HiBiT Lytic Assay System (Promega, N3050) and luminescence was acquired on EnVision™ Multilabel Reader (PerkinElmer, Santa Clara, CA, USA). % SALL4 remaining was determined by normalizing the signal with positive and negative controls on the same microtiter plate. Data in FIG. 7 are expressed as the mean±SD. […]

[2] = target: T3, G1 to S Phase Transition 1 (GSPT1) (Homo sapiens, UniProt P15170); test: GSPT1 degradation, HiBiT-tagged GSPT1 in 293T cells; type: cell-based; conditions: 6 hours, up to 10 WV
T3 construct: Endogenous expression of GSPT1 in 293T cells was determined by addition of N-terminal HiBiT tag; host or cells: 293T (CRISPR-Cas9 HiBiT knock-in)
Experimental: Endogenous expression of GSPT1 in 293T cells was determined by addition of N-terminal HiBiT tag to the 293T cell line (ATCC CRL-3216) using CRISPR-Cas9. Briefly, test compound was added to 384-well plates at a top concentration of 10 μM with 11 points, half log titration in duplicates. 293T cells expressing HiBiT-tagged GSPT1 were seeded into the 384-well plates in DMEM medium containing 10% FBS at a cell density of 6000 cells per well. Cells treated in the absence of the test compound were the negative control and wells containing media only were the positive control. Following compound treatment, cells were incubated at 37° C. with 5% CO2 for 6 hr. HiBiT signal was determined using Nano-Glo™ HiBiT Lytic Assay System (Promega, N3050) and luminescence was acquired on EnVision™ Multilabel Reader (PerkinElmer, Santa Clara, CA, USA). % GSPT1 remaining was determined by normalizing the signal with positive and negative controls on the same microtiter plate. Data in FIG. 8 are expressed as the mean±SD. Curve fit and IC50 determination was performed by 4 parametric regression analysis.

EGFR L858R [3] = target: T4, EGFR L858R (Homo sapiens, UniProt P00533, L858R); test: Differential scanning fluorimetry (DSF); type: binding; conditions: EGFR (L858R) 10 μM, compound 100 μM, vs apo protein +DMSO TM = 45.4° C.
Experimental: The protein was incubated at 10 μM in buffer (100 mM HEPES pH 7.5 and 150 mM NaCl) with DMSO to determine the stability of the protein alone. In addition, the protein (10 μM) was incubated with each compound (100 μM) individually, or in combination, for 30 min on ice. Protein stability was measured in the presence of 4×SYPRO™ Orange dye (Thermo Fisher) using a ViiA7 Real-Time PCR System (Thermo Fisher) adapted for thermal melts. Reactions of 20 μL were run in quadruplicate using Microamp Optical 384-well reaction plates (Applied Biosystems). Temperature was increased by 0.5° C. intervals from 25° C. to 99° C. and fluorescence intensity was measured. In-house curve fitting analysis software was used to calculate the thermal melting point (TM) of the protein in each reaction.

EGFR L858R [4] = target: T4, EGFR L858R; test: Western blot NCI-H3255, Compound 1 with or without osimertinib: EGFR-L858R; type: cell-based; conditions: NCI-H3255, six hours, 0-1,500 nM, presence and absence of 1,500 nM osimertinib
Description: (§1) The compound bearing solutions were formulated to achieve a 0.1% final concentration of DMSO. […] Antibodies used in western blot were purchased from the following vendors: EGFR-L858R specific antibody (CST 3197), pY1068 EGFR (CST 2234), pERK (CST 4370), ERK (CST 4695), vinculin (Millipore 05-386).

pY1068 EGFR = target: T5, pY1068 EGFR (Homo sapiens, UniProt P00533, L858R); test: Western blot NCI-H3255, Compound 1 with or without osimertinib: phospho-EGFR; type: cell-based; conditions: NCI-H3255, six hours, 0-1,500 nM, presence and absence of 1,500 nM osimertinib
T5 construct: NCI-H3255 (harboring EGFR heterozygous L858R mutation); host or cells: NCI-H3255
Description: as §1

pERK = test: Western blot NCI-H3255, Compound 1 with or without osimertinib: phospho-ERK; type: cell-based, human; conditions: NCI-H3255, six hours, 0-1,500 nM, presence and absence of 1,500 nM osimertinib
Description: as §1

T2 sequence (Q96SW2 whole entry partner): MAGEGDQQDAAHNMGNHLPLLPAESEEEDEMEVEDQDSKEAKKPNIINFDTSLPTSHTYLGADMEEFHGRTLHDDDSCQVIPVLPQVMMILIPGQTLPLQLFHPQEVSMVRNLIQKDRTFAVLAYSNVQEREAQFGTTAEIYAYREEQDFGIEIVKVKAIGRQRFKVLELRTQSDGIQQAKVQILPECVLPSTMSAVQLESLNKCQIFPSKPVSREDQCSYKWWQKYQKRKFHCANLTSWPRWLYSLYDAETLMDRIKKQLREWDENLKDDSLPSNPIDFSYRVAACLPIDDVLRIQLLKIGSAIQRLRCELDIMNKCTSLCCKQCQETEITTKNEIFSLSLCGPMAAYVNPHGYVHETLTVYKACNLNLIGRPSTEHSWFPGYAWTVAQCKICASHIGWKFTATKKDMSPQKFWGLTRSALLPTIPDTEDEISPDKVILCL
T2 sequence (Q16531 whole entry partner): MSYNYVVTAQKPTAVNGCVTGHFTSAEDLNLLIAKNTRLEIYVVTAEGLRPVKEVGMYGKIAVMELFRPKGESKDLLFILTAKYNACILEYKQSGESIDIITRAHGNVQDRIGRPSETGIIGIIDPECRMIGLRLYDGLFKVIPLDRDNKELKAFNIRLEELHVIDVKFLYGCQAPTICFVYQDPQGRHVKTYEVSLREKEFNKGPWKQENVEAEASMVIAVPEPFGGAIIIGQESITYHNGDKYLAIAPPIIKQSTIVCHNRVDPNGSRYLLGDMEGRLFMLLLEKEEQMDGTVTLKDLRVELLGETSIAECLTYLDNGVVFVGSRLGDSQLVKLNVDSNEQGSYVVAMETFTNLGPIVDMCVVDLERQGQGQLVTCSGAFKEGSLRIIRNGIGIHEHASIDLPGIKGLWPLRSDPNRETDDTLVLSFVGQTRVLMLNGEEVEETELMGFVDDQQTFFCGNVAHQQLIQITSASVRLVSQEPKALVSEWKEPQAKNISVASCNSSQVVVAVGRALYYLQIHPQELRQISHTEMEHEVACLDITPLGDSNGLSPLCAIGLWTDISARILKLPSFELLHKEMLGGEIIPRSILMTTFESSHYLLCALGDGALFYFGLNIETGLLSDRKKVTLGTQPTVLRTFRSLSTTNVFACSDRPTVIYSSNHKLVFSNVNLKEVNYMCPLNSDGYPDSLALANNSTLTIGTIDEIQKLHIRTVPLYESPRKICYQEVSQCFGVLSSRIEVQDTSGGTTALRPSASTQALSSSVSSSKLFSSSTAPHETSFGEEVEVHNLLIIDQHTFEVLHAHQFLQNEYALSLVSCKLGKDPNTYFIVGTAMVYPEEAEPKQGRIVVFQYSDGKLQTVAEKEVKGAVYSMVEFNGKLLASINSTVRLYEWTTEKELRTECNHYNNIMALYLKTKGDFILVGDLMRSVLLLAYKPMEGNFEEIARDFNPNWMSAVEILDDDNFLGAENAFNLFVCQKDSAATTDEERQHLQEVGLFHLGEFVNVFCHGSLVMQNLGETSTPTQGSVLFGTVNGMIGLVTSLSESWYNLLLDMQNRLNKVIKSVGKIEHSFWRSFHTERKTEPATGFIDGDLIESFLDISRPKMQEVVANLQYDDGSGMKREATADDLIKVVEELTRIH
T2 sequence (Q9UJQ4 whole entry): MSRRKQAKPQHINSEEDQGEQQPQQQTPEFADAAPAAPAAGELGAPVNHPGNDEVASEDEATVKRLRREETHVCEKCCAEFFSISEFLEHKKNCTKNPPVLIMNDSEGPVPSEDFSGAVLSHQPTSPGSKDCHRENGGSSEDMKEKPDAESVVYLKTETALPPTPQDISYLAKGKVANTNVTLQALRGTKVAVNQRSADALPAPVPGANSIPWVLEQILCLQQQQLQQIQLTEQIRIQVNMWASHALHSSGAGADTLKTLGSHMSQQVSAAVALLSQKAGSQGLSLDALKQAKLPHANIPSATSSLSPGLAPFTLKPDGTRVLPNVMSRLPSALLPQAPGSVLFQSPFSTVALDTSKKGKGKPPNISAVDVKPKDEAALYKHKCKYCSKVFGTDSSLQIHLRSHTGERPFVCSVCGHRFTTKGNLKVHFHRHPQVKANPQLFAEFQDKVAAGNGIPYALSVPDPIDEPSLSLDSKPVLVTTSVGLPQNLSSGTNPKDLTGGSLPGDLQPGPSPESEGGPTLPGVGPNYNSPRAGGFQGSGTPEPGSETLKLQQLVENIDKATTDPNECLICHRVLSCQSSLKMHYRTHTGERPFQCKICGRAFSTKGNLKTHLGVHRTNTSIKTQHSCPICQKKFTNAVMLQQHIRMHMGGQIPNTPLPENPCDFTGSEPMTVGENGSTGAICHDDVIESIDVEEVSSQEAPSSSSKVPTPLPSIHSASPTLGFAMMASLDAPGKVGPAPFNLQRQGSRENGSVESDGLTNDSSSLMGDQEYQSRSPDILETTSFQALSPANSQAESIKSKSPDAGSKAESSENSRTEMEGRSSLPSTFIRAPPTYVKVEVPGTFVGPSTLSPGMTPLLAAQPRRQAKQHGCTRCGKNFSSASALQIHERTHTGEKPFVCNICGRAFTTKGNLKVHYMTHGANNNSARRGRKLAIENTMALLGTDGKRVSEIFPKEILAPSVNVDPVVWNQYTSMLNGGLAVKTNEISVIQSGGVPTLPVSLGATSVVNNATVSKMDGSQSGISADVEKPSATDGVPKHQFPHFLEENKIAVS
T3 sequence (Q96SW2 whole entry partner): as the sequence (Q96SW2 whole entry partner) above
T3 sequence (Q16531 whole entry partner): as the sequence (Q16531 whole entry partner) above
T3 sequence (P15170 whole entry): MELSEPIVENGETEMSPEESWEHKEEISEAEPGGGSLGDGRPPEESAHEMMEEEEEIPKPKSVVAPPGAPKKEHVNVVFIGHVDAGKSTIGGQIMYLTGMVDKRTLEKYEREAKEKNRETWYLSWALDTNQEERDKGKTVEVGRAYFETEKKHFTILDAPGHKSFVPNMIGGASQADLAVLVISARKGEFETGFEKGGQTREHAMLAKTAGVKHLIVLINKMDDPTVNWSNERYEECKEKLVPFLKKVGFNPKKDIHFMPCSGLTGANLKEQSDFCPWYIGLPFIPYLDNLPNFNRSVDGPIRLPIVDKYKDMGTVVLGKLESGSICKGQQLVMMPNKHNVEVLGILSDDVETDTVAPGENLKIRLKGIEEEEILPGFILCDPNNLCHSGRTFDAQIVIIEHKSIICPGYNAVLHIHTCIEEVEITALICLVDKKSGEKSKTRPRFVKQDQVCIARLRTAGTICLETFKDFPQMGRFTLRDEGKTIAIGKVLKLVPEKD

Structure (SMILES): O=C1CC[C@H](Nc2ccc(N3CCC(O)(CC(=O)N4CC5(C4)CN(c4ccc(-c6cc(F)c7c(c6)C(=O)N(C(C(=O)Nc6nccs6)c6ncn8c6CCC8)C7)cc4)C5)CC3)c(F)c2)C(=O)N1 (stereo partly drawn) [Compound 1, 2-(6,7-dihydro-5H-pyrrolo[1,2-c]imidazol-1-yl)-2-[6-[4-[2-[2-[1-[4-[[(3S)-2,6-dioxo-3-piperidyl]amino]-2-fluoro-phenyl]-4-hydroxy-4-piperidyl]acetyl]-2,6-diazaspiro[3.3]heptan-6-yl]phenyl]-4-fluoro-1-oxo-isoindolin-2-yl]-N-thiazol-2-yl-acetamide]
- percent binding remaining (EGFR-L861Q): < 50%
- SALL4 degradation (% SALL4 remaining) [1]: no effect
- GSPT1 degradation (% GSPT1 remaining) [2]: no significant effect
- ΔTm at 100 µM (EGFR L858R [3]): 5.8 °C
- EGFR-L858R degradation (western blot) (EGFR L858R [4]): efficiently degraded
- phospho-EGFR inhibition (western blot) (pY1068 EGFR): inhibited
- phospho-ERK inhibition (western blot) (pERK): inhibited
